For 10 compounds, serotonin reuptake inhibition and norepinephrine uptake inhibition results are on record in US20070173522A1, “4-(2-Phenylsulfanyl-phenyl)-1,2,3,6- tetrahydropyridine derivatives as serotonin reuptake inhibitors” (priority 2003, published 2007).

For assay [1], the target named is T1, serotonin reuptake (5-HT uptake into rat cortical synaptosomes) (Rattus norvegicus, UniProt P31652).
T1 construct: Whole brains from male Wistar rats (125-225 g), excluding cerebellum, are homogenized; from tissue; host or cells: synaptosomal preparation from whole brain (excluding cerebellum) of male Wistar rats
T1 sequence (P31652 whole entry): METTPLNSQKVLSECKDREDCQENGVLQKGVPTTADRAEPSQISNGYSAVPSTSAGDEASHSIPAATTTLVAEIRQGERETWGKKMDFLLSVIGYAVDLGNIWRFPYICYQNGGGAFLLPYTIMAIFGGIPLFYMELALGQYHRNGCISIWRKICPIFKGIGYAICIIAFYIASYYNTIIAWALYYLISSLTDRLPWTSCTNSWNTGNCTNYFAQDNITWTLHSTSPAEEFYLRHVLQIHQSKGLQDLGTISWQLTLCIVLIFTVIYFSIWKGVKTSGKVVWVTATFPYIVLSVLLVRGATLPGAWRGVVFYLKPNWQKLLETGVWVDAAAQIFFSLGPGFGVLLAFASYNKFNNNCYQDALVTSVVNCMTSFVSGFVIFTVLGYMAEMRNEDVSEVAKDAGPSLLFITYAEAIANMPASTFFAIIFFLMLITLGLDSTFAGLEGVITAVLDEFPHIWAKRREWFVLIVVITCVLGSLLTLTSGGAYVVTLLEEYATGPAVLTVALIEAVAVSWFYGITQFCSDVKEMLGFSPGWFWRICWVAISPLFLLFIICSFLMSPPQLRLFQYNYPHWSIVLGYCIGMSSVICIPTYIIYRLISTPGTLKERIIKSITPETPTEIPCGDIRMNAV
The experiment in a line: Measurements of [3H]-5-HT uptake into rat cortical synaptosomes. Format: biochemical. The conditions noted are these: result in words; test described in the examples section. The protocol: Measurements of [^3]-5-HT Uptake into Rat Cortical Synaptosomes.
Whole brains from male Wistar rats (125-225 g), excluding cerebellum, are homogenized in 0.32 M sucrose supplemented with 1 mM nialamid with a glass/teflon homogenizer. The homogenate is centrifuged at 600×g for 10 mil at 4° C. The pellet is discarded and the supernatant is centrifuged at 20.000×g for 55 min. The final pellet is homogenized (20 sec) in this assay buffer (0.5 mg original tissue/well). Test compounds (or buffer) and 10 nM [^3H]-5-HT are added to 96 well plates and shaken briefly. Composition of assay buffer: 123 mM NaCl, 4.82 mM KCl, 0.973 mM CaCl2, 1.12 mM MgSO4, 12.66 mM Na2HPO4, 2.97 mM NaH2PO4, 0.162 mM EDTA, 10 mM glucose and 1 mM ascorbic acid. Buffer is oxygenated with 95% O2/5% CO2 for 10 min at 37° C. and pH is adjusted 7.4. The incubation is started by adding tissue to a final assay volume of 0.2 mL. After 15 min incubation with radioligand at 37° C., samples are filtered directly on Unifilter GF/C glass fiber filters (soaked for 1 hour in 0.1% polyethylenimine) under vacuum and immediately washed with 3×0.2 ml assay buffer. Non-specific uptake is determined using citalopram (10 μM final concentration). Citalopram is included as reference in all experiments as dose-response curve.

Assay [2] concerns the target T2, norepinephrine uptake (noradrenaline uptake into rat cortical synaptosomes) (Rattus norvegicus, UniProt Q63380).
T2 construct: Fresh cortex from male Wistar rats (125-225 g) are homogenized in 0.4M sucrose; from tissue; host or cells: synaptosomal preparation from fresh cortex of male Wistar rats
Kind of assay: Measurements of [3H]noradrenaline uptake into rat cortical synaptosomes. Format: biochemical. The conditions noted are these: result in words; test described in the examples section. The procedure:
Measurements of ^3H]Noradrenaline Uptake into Rat Cortical Synaptosomes.
Fresh cortex from male Wistar rats (125-225 g) are homogenized in 0.4M sucrose with a glass/teflon homogenizer. The homogenate is centrifuged at 600×g for 10 min at 4° C. The pellet is discarded and the supernatant is centrifuged at 20.000×g for 55 min. The final pellet is homogenized (20 sec) in this assay buffer (6 mg original tissue/mL=4 mg/well). Test compounds (or buffer) and 10 nM [^3H]-noradrenaline are added to deep 96 well plates and shaken briefly. Composition of assay buffer: 123 mM NaCl, 4.82 mM KCl, 0.973 mM CaCl2, 1.12 mM MgSO4, 12.66 mM Na2HPO4, 2.97 mM NaH2PO4, 0.162 mM EDTA, 10 mM glucose and 1 mM ascorbic acid. Buffer is oxygenated with 95% O2/5% CO2 for 10 min at 37° C. and pH is adjusted 7.4. The incubation is started by adding tissue to a final assay volume of 1 ml. After 15 min incubation with radioligand at 37° C., samples are filtered directly on Unifilter GF/C glass fiber filters (soaked for 1 hour in 0.1% polyethylenimine) under vacuum and immediately washed with 3×1 mL assay buffer. Non-specific uptake is determined using talsupram (10 μM final concentration). Duloxetine is included as reference in all experiments as dose-response curve.

Structures are written as SMILES.

T2 sequence (Q63380 1-617): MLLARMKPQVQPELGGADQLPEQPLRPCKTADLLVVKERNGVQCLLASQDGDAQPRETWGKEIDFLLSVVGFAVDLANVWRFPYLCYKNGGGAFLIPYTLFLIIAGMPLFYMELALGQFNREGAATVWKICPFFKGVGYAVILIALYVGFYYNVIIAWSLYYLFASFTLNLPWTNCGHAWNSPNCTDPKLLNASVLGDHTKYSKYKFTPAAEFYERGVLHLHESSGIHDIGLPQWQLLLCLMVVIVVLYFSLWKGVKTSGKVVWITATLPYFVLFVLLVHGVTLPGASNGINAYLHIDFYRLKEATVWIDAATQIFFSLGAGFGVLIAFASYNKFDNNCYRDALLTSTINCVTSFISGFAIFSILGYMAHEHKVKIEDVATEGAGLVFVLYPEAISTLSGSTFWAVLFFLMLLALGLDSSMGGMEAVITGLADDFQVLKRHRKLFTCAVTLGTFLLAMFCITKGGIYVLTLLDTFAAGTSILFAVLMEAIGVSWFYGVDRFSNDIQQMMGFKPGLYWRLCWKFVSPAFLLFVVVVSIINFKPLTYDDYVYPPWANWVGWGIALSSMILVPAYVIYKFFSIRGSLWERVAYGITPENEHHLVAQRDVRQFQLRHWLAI

For the compound `Cc1cccc(Sc2ccccc2C2=CCNCC2)c1C` [Compound 33, 4-[2-(2,3-Dimethyl-phenylsulfanyl)-phenyl]-1,2,3,6-tetrahydro-pyridine], in assay [1], the serotonin reuptake inhibition result is “did show serotonin reuptake inhibition”. Moreover, the norepinephrine uptake inhibition entry in assay [2] is reported as “did not show norepinephrine uptake inhibition”.
Regarding `COc1ccc(Sc2ccccc2C2=CCNCC2)c(C)c1` [Compound 37, 4-[2-(4-Methoxy-2-methyl-phenylsulfanyl)-phenyl]-1,2,3,6-tetrahydro-pyridine], in assay [1], the serotonin reuptake inhibition entry is reported as “did show serotonin reuptake inhibition”. In addition, in assay [2], the norepinephrine uptake inhibition result is “did not show norepinephrine uptake inhibition”.
Taken in the same sequence, the figures for `Cc1ccc(Sc2ccc(C)cc2C2=CCNCC2)c(F)c1` [Compound 52, 4-[2-(2-Fluoro-4-methyl-phenylsulfanyl)-5-methyl-phenyl]-1,2,3,6-tetrahydro-pyridine] were “did show serotonin reuptake inhibition” and “did not show norepinephrine uptake inhibition”.
Taken in the same sequence, the figures for `COc1ccc(Sc2ccc(C)cc2C2=CCNCC2)c(F)c1` [Compound 61, 4-[2-(2-Fluoro-4-methoxy-phenylsulfanyl)-5-methyl-phenyl]-1,2,3,6-tetrahydro-pyridine] were “did show serotonin reuptake inhibition” and “did not show norepinephrine uptake inhibition”.
Taken in the same sequence, the figures for `Fc1cccc(Sc2ccccc2C2=CCNCC2)c1F` [Compound 83, 4-[2-(2,3-Difluoro-phenylsulfanyl)-phenyl]-1,2,3,6-tetrahydro-pyridine] were “did show serotonin reuptake inhibition” and “did not show norepinephrine uptake inhibition”.
As for `Cc1ccc(Sc2ccccc2C2=CCNCC2)c(Cl)c1` [Compound 84, 4-[2-(2-Chloro-4-methyl-phenylsulfanyl)-phenyl]-1,2,3,6-tetrahydro-pyridine], the serotonin reuptake inhibition result in assay [1] is on record as “did show serotonin reuptake inhibition”. Further, the norepinephrine uptake inhibition result in assay [2] was “did not show norepinephrine uptake inhibition”.
Taken in the same sequence, the figures for `Cc1ccc(Sc2cccc(Cl)c2F)c(C2=CCNCC2)c1` [Compound 86] were “did show serotonin reuptake inhibition” and “did not show norepinephrine uptake inhibition”.
As for `Cc1c(F)cccc1Sc1ccccc1C1=CCNCC1` [Compound 87, 4-[2-(3-Fluoro-2-methyl-phenylsulfanyl)-phenyl]-1,2,3,6-tetrahydro-pyridine], in assay [1], the serotonin reuptake inhibition entry is listed as “did show serotonin reuptake inhibition”. Besides, in assay [2], the norepinephrine uptake inhibition result is reported as “did not show norepinephrine uptake inhibition”.
Regarding `Cc1ccc(Sc2cccc(F)c2C)c(C2=CCNCC2)c1` [Compound 89, 4-[2-(3-Fluoro-2-methyl-phenylsulfanyl)-5-methyl-phenyl]-1,2,3,6-tetrahydro-pyridine], the serotonin reuptake inhibition result in assay [1] is on record as “did show serotonin reuptake inhibition”. Moreover, the norepinephrine uptake inhibition result in assay [2] is listed as “did not show norepinephrine uptake inhibition”.
Taken in the same sequence, the figures for `Cc1ccc(Sc2ccc(C)c(F)c2)c(C2=CCNCC2)c1` [Compound 128, 4-[2-(3-Fluoro-4-methyl-phenylsulfanyl)-5-methyl-phenyl]-1,2,3,6-tetrahydro-pyridine] were “did show serotonin reuptake inhibition” and “did not show norepinephrine uptake inhibition”.
